Assay results reported in the NIST ThermoML archive (doi:10.1016/j.fluid.2016.02.018).
± gives the expanded uncertainty stated by the source.

Details: 293.2 K; 101.33 kPa; Liquid; Vibrating tube method

Row | Structure (SMILES) | mass density [kg/m3]
1 | CC[n+]1ccc(C)cc1.O=S(=O)([N-]S(=O)(=O)C(F)(F)F)C(F)(F)F | 1489.9 ± 0.7
2 | CCn1cc[n+](C)c1.N#CN=C=[N-] [1-ethyl-3-methylimidazolium dicyanamide] | 1104.9 ± 1.1
